From paper PMC8304610, “Discovery of Novel 2,4-Dianilinopyrimidine Derivatives Containing 4-(Morpholinomethyl)phenyl and N-Substituted Benzamides as Potential FAK Inhibitors and Anticancer Agents” (Molecules, 2021)

Key:
[1] = system: normal human bronchial epithelial cells (HBE); assay: CCK-8 cellular selectivity assay, HBE; type: cell-based; settings: for IC50: Homo sapiens, Epithelial cell, HBE normal cells, CCK-8, 72 h, mean ± SD of three experiments, read-out: Antiproliferative Activity IC50, HBE; for SI Values (selectivity index): IC50 for HBE cell line/IC50 for H1975 cell line
Method: (§1) The H1975 human NSCLC cell line was obtained from ATCC. A431 human epithelial carcinoma and HBE human bronchial epithelial cell lines were kind gifts from Fuheng Biological Company Ltd. (Shanghai, China) and YuXi Biotech Company (Jiangsu, China), respectively. The cells were maintained in RPMI 1640 or DMEM (Gibco®, Thermo Fisher Scientific Inc., Waltham, MA, USA) containing 10% fetal bovine serum (FBS, Gibco®) and 1% penicillin-streptomycin (Beyotime Company, Shanghai, China) at 37 °C in a 5% CO2 incubator.
(§2) A total of 3000 cells of H1975 or HBE and 5000 cells of A431 were seeded for each well into a 96-well plate and cultured in 10% FBS respective growth medium overnight. Various concentrations (0–20 μM) of each compound were then added in triplicate to the cells. After 72 h of incubation, 10 μL of CCK-8 solution (5.0 mg/mL, Biotool Company, Kirchberg, Switzerland) was added to each well and the cells continued to culture for 4 h. The optical density (OD) was determined at 450 nm with a microplate reader (Thermo Fisher Scientific, Waltham, MA, USA). IC50 values were calculated employing GraphPad Prism version 8.0.

FAK kinase = target: T1, FAK kinase (Homo sapiens, UniProt Q05397); assay: ADP-Glo kinase enzymatic assay; type: biochemical; settings: mean ± SD of three independent experiments
T1 construct: purchased Promega Corporation V9301
Method: The ADP-Glo™ Kinase Assay Kit and FAK Kinase Enzyme (Catalog. V9301) were purchased from Promega Corporation (Madison, WI, USA). The experiments were performed according to the detailed and complete protocols of the manufacturer. Briefly, the concentration of FAK determined by optimization experiments was 0.1 μg/μL. Suitable concentration gradients from 1.6 to 1000 nM were set for all the tested compounds. A kinase reaction buffer, a substrate/ATP mixture, and a FAK solution were prepared right before use. The 5 μL kinase reaction consisted of 1 μL of compound solution, 2 μL of substrate/ATP mixture, and 2 μL of FAK solution. The control without enzyme was provided by 3 μL of kinase reaction buffer and 2 μL of substrate/ATP mixture. The negative control was prepared using 1 μL of kinase reaction buffer instead of a compound solution. The kinase reactions were added to a 384-well plate and incubated at room temperature for 60 min, then 5 μL of ADP-Glo™ Reagent was added to stop the kinase reaction and deplete the unconsumed ATP, and incubated at room temperature for 40 min. After adding 10 μL of Kinase Detection Reagent, the plate was incubated at room temperature for 30 min and then luminescence was recorded (integration time 0.5–1 s) on a TriStar® LB942 Multimode Microplate Reader (BERTHOLD TECHNOLOGIES GmbH & Co. KG., Bad Wildbad, Germany). Curve fitting and data presentations were performed using GraphPad Prism version 8.0.

[2] = system: A431 human epithelial carcinoma cells; assay: CCK-8 cell viability assay, A431; type: cell-based; settings: A-431, CCK-8, 72 h, mean ± SD of three experiments, read-out: Antiproliferative Activity IC50, A431
Method: as §1, §2

[3] = system: H1975 non-small cell lung cancer (NSCLC) cells; assay: CCK-8 cell viability assay, H1975; type: cell-based; settings: Homo sapiens, NCI-H1975, CCK-8, 72 h, mean ± SD of three experiments, read-out: Antiproliferative Activity IC50, H1975
Method: as §1, §2

H1975 cells = assay: Scratch (cell migration) assay; type: cell-based, human; settings: H1975, 0.1, 0.5, and 1 μM, 24 h
Method: H1975 cells were seeded in 6-well plates and incubated for 12 h. When cells were grown to 90–100% confluency in a monolayer, wounds were generated using a pipette tip. […] The images were captured to record the status of cells near the scratch lines at the beginning and after 12 and 24 h.

T1 sequence (Q05397 393-698 limits assumed): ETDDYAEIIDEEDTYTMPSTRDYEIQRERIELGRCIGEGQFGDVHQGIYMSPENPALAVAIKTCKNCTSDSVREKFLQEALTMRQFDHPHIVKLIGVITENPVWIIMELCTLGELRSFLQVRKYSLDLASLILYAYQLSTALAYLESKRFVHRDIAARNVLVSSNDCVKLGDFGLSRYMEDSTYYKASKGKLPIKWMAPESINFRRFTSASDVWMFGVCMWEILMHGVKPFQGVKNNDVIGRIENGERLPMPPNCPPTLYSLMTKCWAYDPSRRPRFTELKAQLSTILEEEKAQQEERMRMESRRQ

Row | IC50 (FAK kinase) [µM] | IC50 [2] [µM] | IC50 [3] [µM] | melting point [°C] | SMILES | IC50 [1] [µM] | SI Values (selectivity index) [1] | Cell migration (in words) (H1975 cells)
1 | 0.061 ± 0.009 | 0.207 ± 0.036 | 0.075 ± 0.011 | – | O=C(NCCCO)c1ccccc1Nc1nc(Nc2ccc(CN3CCOCC3)cc2)ncc1Cl [Compound 8b, 2-((5-Chloro-2-((4-(morpholinomethyl)phenyl)amino)pyrimidin-4-yl)amino)-N-(3-hydroxypropyl)benzamide] | 1.15 ± 0.283 | 15 | –
2 | 0.03 ± 0.007 | 0.158 ± 0.027 | 0.119 ± 0.047 | – | CC(O)CNC(=O)c1ccccc1Nc1nc(Nc2ccc(CN3CCOCC3)cc2)ncc1Cl (stereo not drawn) [Compound 8c, 2-((5-Chloro-2-((4-(morpholinomethyl)phenyl)amino)pyrimidin-4-yl)amino)-N-(2-hydroxypropyl)benzamide] | 4.01 ± 0.231 | 34 | –
3 | 0.04 ± 0.011 | 0.161 ± 0.082 | 0.293 ± 0.05 | – | CN(CCO)C(=O)c1ccccc1Nc1nc(Nc2ccc(CN3CCOCC3)cc2)ncc1Cl [Compound 8d, 2-((5-Chloro-2-((4-(morpholinomethyl)phenyl)amino)pyrimidin-4-yl)amino)-N-(2-hydroxyethyl)-N-methylbenzamide] | 3.83 ± 0.5 | 13 | –
4 | 0.129 ± 0.037 | 0.238 ± 0.098 | 1.41 ± 0.132 | – | O=C(c1ccccc1Nc1nc(Nc2ccc(CN3CCOCC3)cc2)ncc1Cl)N1CCC(O)CC1 [Compound 8e] | 0.435 ± 0.045 | 0.3 | –
5 | 0.173 ± 0.023 | 0.195 ± 0.097 | 2.22 ± 0.261 | – | O=C(c1ccccc1Nc1nc(Nc2ccc(CN3CCOCC3)cc2)ncc1Cl)N1CCC(CO)CC1 [Compound 8f] | 0.862 ± 0.125 | 0.4 | –
6 | 0.198 ± 0.032 | 0.507 ± 0.019 | 0.287 ± 0.061 | – | O=C(NCCCCCCO)c1ccccc1Nc1nc(Nc2ccc(CN3CCOCC3)cc2)ncc1Cl [Compound 8g, 2-((5-Chloro-2-((4-(morpholinomethyl)phenyl)amino)pyrimidin-4-yl)amino)-N-(6-hydroxyhexyl)benzamide] | 1.65 ± 0.813 | 6 | –
7 | 0.072 ± 0.007 | 0.047 ± 0.006 | 0.219 ± 0.082 | – | O=C(NCC(O)CO)c1ccccc1Nc1nc(Nc2ccc(CN3CCOCC3)cc2)ncc1Cl (stereo not drawn) [Compound 8h, 2-((5-Chloro-2-((4-(morpholinomethyl)phenyl)amino)pyrimidin-4-yl)amino)-N-(2,3-dihydroxypropyl)benzamide] | 0.688 ± 0.121 | 3 | –
8 | 0.126 ± 0.021 | 1.25 ± 0.909 | 0.815 ± 0.061 | – | CCC(C)C(CO)NC(=O)c1ccccc1Nc1nc(Nc2ccc(CN3CCOCC3)cc2)ncc1Cl (stereo not drawn) [Compound 8i, 2-((5-Chloro-2-((4-(morpholinomethyl)phenyl)amino)pyrimidin-4-yl)amino)-N-(1-hydroxy-3-methylpentan-2-yl)benzamide] | > 20 | >24 | –
9 | 0.149 ± 0.033 | 0.182 ± 0.032 | 0.047 ± 0.009 | 174 to 176 | O=C(NCCOc1no[n+]([O-])c1S(=O)(=O)c1ccccc1)c1ccccc1Nc1nc(Nc2ccc(CN3CCOCC3)cc2)ncc1Cl [Compound 9a, 4-(2-(2-((5-Chloro-2-((4-(morpholinomethyl)phenyl)amino)pyrimidin-4-yl)amino)benzamido)ethoxy)-3-(phenylsulfonyl)-1,2,5-oxadiazole 2-oxide] | 0.916 ± 0.092 | 19 | –
10 | 0.338 ± 0.038 | 0.138 ± 0.031 | 0.164 ± 0.051 | 144 to 146 | O=C(NCCCOc1no[n+]([O-])c1S(=O)(=O)c1ccccc1)c1ccccc1Nc1nc(Nc2ccc(CN3CCOCC3)cc2)ncc1Cl [Compound 9b, 4-(3-(2-((5-Chloro-2-((4-(morpholinomethyl)phenyl)amino)pyrimidin-4-yl)amino)benzamido)propoxy)-3-(phenylsulfonyl)-1,2,5-oxadiazole 2-oxide] | 2.08 ± 0.366 | 13 | –
11 | 0.089 ± 0.014 | 1.07 ± 0.154 | 0.567 ± 0.086 | 187 to 189 | CC(CNC(=O)c1ccccc1Nc1nc(Nc2ccc(CN3CCOCC3)cc2)ncc1Cl)Oc1no[n+]([O-])c1S(=O)(=O)c1ccccc1 (stereo not drawn) [Compound 9c, 4-((1-(2-((5-Chloro-2-((4-(morpholinomethyl)phenyl)amino)pyrimidin-4-yl)amino)benzamido)propan-2-yl)oxy)-3-(phenylsulfonyl)-1,2,5-oxadiazole 2-oxide] | 2.42 ± 0.546 | 4 | –
12 | 0.066 ± 0.014 | 2.74 ± 0.206 | 1.09 ± 0.137 | 169 to 171 | CN(CCOc1no[n+]([O-])c1S(=O)(=O)c1ccccc1)C(=O)c1ccccc1Nc1nc(Nc2ccc(CN3CCOCC3)cc2)ncc1Cl [Compound 9d, 4-(2-(2-((5-Chloro-2-((4-(morpholinomethyl)phenyl)amino)pyrimidin-4-yl)amino)-N-methylbenzamido)ethoxy)-3-(phenylsulfonyl)-1,2,5-oxadiazole 2-oxide] | 4.55 ± 0.533 | 4 | –
13 | > 1 | 2.41 ± 0.587 | 1.72 ± 0.295 | 130 to 132 | O=C(c1ccccc1Nc1nc(Nc2ccc(CN3CCOCC3)cc2)ncc1Cl)N1CCC(Oc2no[n+]([O-])c2S(=O)(=O)c2ccccc2)CC1 [Compound 9e, 4-((1-(2-((5-Chloro-2-((4-(morpholinomethyl)phenyl)amino)pyrimidin-4-yl)amino)benzoyl)piperidin-4-yl)oxy)-3-(phenylsulfonyl)-1,2,5-oxadiazole 2-oxide] | 0.763 ± 0.1 | 0.4 | –
14 | 0.3 ± 0.009 | 1.74 ± 0.305 | 1.57 ± 0.265 | 109 to 111 | O=C(c1ccccc1Nc1nc(Nc2ccc(CN3CCOCC3)cc2)ncc1Cl)N1CCC(COc2no[n+]([O-])c2S(=O)(=O)c2ccccc2)CC1 [Compound 9f, 4-((1-(2-((5-Chloro-2-((4-(morpholinomethyl)phenyl)amino)pyrimidin-4-yl)amino)benzoyl)piperidin-4-yl)methoxy)-3-(phenylsulfonyl)-1,2,5-oxadiazole 2-oxide] | 3.76 ± 1.6 | 2 | –
15 | > 1 | 0.617 ± 0.04 | 0.592 ± 0.073 | 120 to 122 | O=C(NCCCCCCOc1no[n+]([O-])c1S(=O)(=O)c1ccccc1)c1ccccc1Nc1nc(Nc2ccc(CN3CCOCC3)cc2)ncc1Cl [Compound 9g, 4-((6-(2-((5-Chloro-2-((4-(morpholinomethyl)phenyl)amino)pyrimidin-4-yl)amino)benzamido)hexyl)oxy)-3-(phenylsulfonyl)-1,2,5-oxadiazole 2-oxide] | 3.01 ± 0.09 | 5 | –
16 | – | 0.988 ± 0.119 | 0.116 ± 0.032 | – | C=CC(=O)Nc1cc(Nc2nccc(-c3cn(C)c4ccccc34)n2)c(OC)cc1N(C)CCN(C)C [Osimertinib, osimertinib, reference compound] | 1.21 ± 0.177 | 10 | –
17 | – | 0.392 ± 0.053 | 0.141 ± 0.041 | – | CNC(=O)c1ccccc1Nc1nc(Nc2ccc(N3CCOCC3)cc2OC)ncc1Cl [TAE226, reference compound] | > 20 | – | reduced migration distances
